Results on four compounds are retold here after US20250230163A1, “SOLID FORMS OF HIV INTEGRASE INHIBITORS” (Gilead Sciences, Inc., priority 2023, published 2025).

The nature of data set [1]: Hygroscopicity by dynamic vapor sorption (DVS). The data set is classed as physicochemical. Conditions: for solid form post DVS experiment: after sorption/desorption cycle up to 95% RH at 25° C.; for water absorbed (dynamic vapor sorption): up to 95% RH at 25° C. On the procedure:
Hygroscopicity was studied using dynamic vapor sorption (DVS, TA Q5000 SA, TA Instruments, New Castle, DE or DVS, DVS Intrinsic, Surface Measurement Systems, London, UK). A sample (1-20 mg) was placed in an aluminum DVS pan and loaded on the sample side of the twin pan balance. The water sorption and desorption were studied as a function of relative humidity (RH) at 25° C. In 10% RH increments, the relative humidity was increased from 5% RH to 95% RH and then decreased back to 5%. […] Data analysis was performed using Universal Analysis 2000 Version 4.7A (TA Instruments, New Castle, DE) for TA DVS runs and Microsoft Excel for SMS DVS runs.

A short description of data set [2]: Physical form stability on drying under ambient conditions. Type of data set: physicochemical. An excerpt:
Compound of Formula I, Form II is a metastable methanol solvated phase. It was isolated when compound of Formula I, Form I was slurried in methanol for about 60 days and identified by x-ray of the wet cake. […] Compound of Formula I, Form III was also made when Form II was dried under ambient conditions.

For `O=C(NCc1c(F)cc(F)cc1F)c1cn2c(c(O)c1=O)C(=O)N1CCCC[C@H]2C1` [Compound of Formula I, Form I, (7S)-12-hydroxy-1,11-dioxo-N-(2,4,6-trifluorobenzyl)-1,4,5,6,7,11-hexahydro-3H-2,7-methanopyrido[1,2-a][1,4]diazonine-10-carboxamide], in data set [1], the “solid form post DVS experiment” value is on record as “not have changed form” and the “water absorbed (dynamic vapor sorption)” value is “about 0.097%”.

As for `O=C(NCc1c(F)cc(F)cc1F)c1cn2c(c(O)c1=O)C(=O)N1CCCC[C@H]2C1` [Compound of Formula I, Form II, (7S)-12-hydroxy-1,11-dioxo-N-(2,4,6-trifluorobenzyl)-1,4,5,6,7,11-hexahydro-3H-2,7-methanopyrido[1,2-a][1,4]diazonine-10-carboxamide], the “form conversion upon drying” value in data set [2] was “convert to compound of Formula I, Form III”.

As for `O=C(NCc1c(F)cc(F)cc1F)c1cn2c(c(O)c1=O)C(=O)N1CCCC[C@H]2C1` [Compound of Formula I, Form III, (7S)-12-hydroxy-1,11-dioxo-N-(2,4,6-trifluorobenzyl)-1,4,5,6,7,11-hexahydro-3H-2,7-methanopyrido[1,2-a][1,4]diazonine-10-carboxamide], in data set [1], the “solid form post DVS experiment” value was “not have changed form” and the “water absorbed (dynamic vapor sorption)” value is “about 0.87%”.

Regarding `O=C(NCc1c(F)cc(F)cc1F)c1cn2c(c(O)c1=O)C(=O)N1CCCC[C@H]2C1` [Compound of Formula I, Form IV, (7S)-12-hydroxy-1,11-dioxo-N-(2,4,6-trifluorobenzyl)-1,4,5,6,7,11-hexahydro-3H-2,7-methanopyrido[1,2-a][1,4]diazonine-10-carboxamide], in data set [1], the “solid form post DVS experiment” value is recorded as “not have changed form” and the “water absorbed (dynamic vapor sorption)” value is “about 3.5%”.
